Assay results: patent publication US10662183B2, “Inhibitors of myocardin-related transcription factor and serum response factor (MRTF/SRF)-mediated gene transcription and methods for use of the same” (THE REGENTS OF THE UNIVERSITY OF MICHIGAN, priority 2014, dated 2020)
pIC50: −log10 of the molar value.

The compounds below were run on SRE.L-firefly luciferase reporter (Rho/MKL1 pathway) in PC-3 prostate cancer cells (assay: SRE.L-luciferase reporter assay). Settings: 19 h, PC-3 cells transfected with Gα12Q231L, SRE.L and pRL-TK reporters; compound 19 hrs.
Type: cell-based
Protocol: Seed PC-3 prostate cancer cells (40,000 cells/well) were grown in 96-well plates in 10% FBS containing DMEM medium. Cells were transiently transfected with the Ga12QL activator of the Rho/MKL1 pathway, along with the SRE.L-firefly luciferase reporter construct for 6 hours. Additionally, cells were co-transfected with the TK-Renilla luciferase reporter as an indicator of non-specific compound effects. Various concentrations of the compounds disclosed herein were added to the 96-well plates. Plates were incubated for 19 hours at 37° C. and 5% C02 in 0.5% FBS containing DMEM medium. Cells were lysed with IX Passive Lysis Buffer (Promega). Plates were incubated for 30 minutes at room temperature. Luminescence counts were read with a Victor2 (Perkin-Elmer) plate reader.
One hour prior to cell lysis for the dual luciferase assay, 10 μl: per well of WST1 reagent (Roche) was added to the 96-well plates. Plates were incubated for 1 hour at 37° C. and 5% CO2. Cell viability was measured by WST1 absorbance at 450 nm with a Victor2 (Perkin-Elmer) plate reader.
Biological activity of the compounds disclosed herein were assessed in the SRE.L luciferase reporter assay. PC-3 prostate cancer cells were co-transfected with 2 ng of the Gα12Q231L expression plasmid along with 50 ng of the SRE.L and 7 ng of the pRL-TK luciferase reporter plasmids, as described in the Materials and Methods section. Cells were treated with 0 (vehicle, DMSO alone), 1, 3, 10, 30, and 100 μM of a compound disclosed herein for 19 hrs after transfection before lysis. Luminescence was determined as described in the Materials and Methods section. Just before cell lysis, the viability of the cells was measured using the WST-1 cell proliferation reagent as described in the Materials and Methods section. Data are expressed as percentage of inhibition (DMSO alone=0%). The experiments were performed three separate times to achieve n=3 in triplicate.

| Compound | pIC50 |
| --- | --- |
| COC1(OC)CC(C(=O)Nc2ccc(Cl)cc2)CN(C(=O)c2cccc(-c3ccco3)c2)C1 (stereo not shown) [Example E-021, N-(4-chlorophenyl)-1-(3-(furan-2-yl)benzoyl)-5,5-dimethoxypiperidine-3-carboxamide] | 5.36 |
| O=C(Nc1ccc(Cl)cc1)C1CCCN(C(=O)c2cncc(-c3ccco3)c2)C1 (stereo not shown) [Example E-023, N-(4-chlorophenyl)-1-(5-(furan-2-yl)nicotinoyl)piperidine-3-carboxamide] | 5.31 |
| O=C(Nc1ccc(Cl)cc1)C1CCCN(C(=O)c2cc(-c3ccco3)ccn2)C1 (stereo not shown) [Example E-024, N-(4-chlorophenyl)-1-(4-(furan-2-yl)picolinoyl)piperidine-3-carboxamide] | 5.37 |
| O=C(Nc1ccc(Cl)cc1)C1CN(C(=O)c2cncc(-c3ccco3)c2)CC(F)(F)C1 (stereo not shown) [Example E-026, N-(4-chlorophenyl)-5,5-difluoro-1-{[5-(furan-2-yl)pyridin-3-yl]carbonyl}piperidine-3-carboxamide] | 5.28 |
| O=C(Nc1ccc(Cl)cc1)C1CC(O)CN(C(=O)c2cccc(-c3ccco3)c2)C1 (stereo not shown) [Example E-027, N-(4-chlorophenyl)-1-{[3-(furan-2-yl)phenyl]carbonyl}-5-hydroxypiperidine-3-carboxamide] | 4.90 |
| CC1(C(=O)Nc2ccc(Cl)cc2)CCCN(C(=O)c2cccc(-c3ccco3)c2)C1 (stereo not shown) [Example E-028, N-(4-chlorophenyl)-1-(3-(furan-2-yl)benzoyl)-3-methylpiperidine-3-carboxamide] | 5.30 |
| O=C(Nc1ccc(Cl)cc1)C1CCCN(C(=O)c2cccc(-n3cccn3)c2)C1 (stereo not shown) [Example E-030, 1-(3-(1H-pyrazol-1-yl)benzoyl)-N-(4-chlorophenyl)piperidine-3-carboxamide] | 5.21 |
| O=C(Nc1ccc(Cl)cc1)C1CCCN(C(=O)c2cccc(-c3cn[nH]c3)c2)C1 (stereo not shown) [Example E-031, 1-(3-(1H-pyrazol-4-yl)benzoyl)-N-(4-chlorophenyl)piperidine-3-carboxamide] | 5.47 |
| O=C(Nc1ccc(Cl)cc1)C1CCCN(C(=O)c2cc(-c3ccco3)ncn2)C1 (stereo not shown) [Example E-034, N-(4-chlorophenyl)-1-(6-(furan-2-yl)pyrimidine-4-carbonyl) piperidine-3-carboxamide] | < 4.00 |
| Cn1c(C(=O)N2CCCC(C(=O)Nc3ccc(Cl)cc3)C2)nc2ccccc21 (stereo not shown) [Example E-035, N-(4-chlorophenyl)-1-(1-methyl-1H-benzo[d]imidazole-2-carbonyl)piperidine-3-carboxamide] | 5.10 |
| O=C(Nc1ccc(Cl)cc1)C1CCCN(C(=O)c2cnc(Br)s2)C1 (stereo not shown) [Example E-036, 1-(2-bromothiazole-5-carbonyl)-N-(4-chlorophenyl) piperidine-3-carboxamide] | < 4.00 |
| O=C(Nc1ccc(Cl)cc1)C1CCCN(C(=O)c2cnc(-c3ccco3)s2)C1 (stereo not shown) [Example E-037, N-(4-chlorophenyl)-1-(2-(furan-2-yl)thiazole-5-carbonyl)piperidine-3-carboxamide] | 4.74 |
| O=C(Nc1ccc(Cl)cc1)C1CCCN(C(=O)c2csc(-c3ccco3)n2)C1 (stereo not shown) [Example E-038, N-(4-chlorophenyl)-1-(2-(furan-2-yl)thiazole-4-carbonyl) piperidine-3-carboxamide] | 5.19 |
| O=C(Nc1ccc(Cl)cc1)C1CCCN(C(=O)c2cc(-c3ccco3)on2)C1 (stereo not shown) [Example E-039, N-(4-chlorophenyl)-1-(5-(furan-2-yl)isoxazole-3-carbonyl) piperidine-3-carboxamide] | 4.37 |
| O=C(Nc1ccc(Cl)cc1)C1CCCN(C(=O)c2cc(-c3ccco3)[nH]n2)C1 (stereo not shown) [Example E-040, N-(4-chlorophenyl)-1-(5-(furan-2-yl)-1H-pyrazole-3-carbonyl)piperidine-3-carboxamide] | 5.09 |
| NC1CC(C(=O)Nc2ccc(Cl)cc2)CN(C(=O)c2cccc(-c3ccco3)c2)C1 (stereo not shown) [Example E-043, 5-amino-N-(4-chlorophenyl)-1-(3-(furan-2-yl)benzoyl)piperidine-3-carboxamide] | 5.30 |
| CCC(=O)NC1CC(C(=O)Nc2ccc(Cl)cc2)CN(C(=O)c2cccc(-c3ccco3)c2)C1 (stereo not shown) [Example E-049, N-(4-chlorophenyl)-1-(3-(furan-2-yl)benzoyl)-5-propionamidopiperidine-3-carboxamide] | 5.20 |
| O=C(c1cccc(-c2cn[nH]c2)c1)N1CC(COc2ccc(Cl)cc2)CC(F)(F)C1 (stereo not shown) [Example E-051, (3-(1H-pyrazol-4-yl)phenyl)(5-((4-chlorophenoxy)methyl)-3,3-difluoropiperidin-1-yl)methanone] | 5.48 |
| O=C(Nc1ccc(Cl)cc1)C1CN(C(=O)c2cccc(-c3ccco3)c2)CCS1(=O)=O (stereo not shown) [Example E-053, N-(4-chlorophenyl)-4-(3-(furan-2-yl)benzoyl) thiomorpholine-2-carboxamide 1,1-dioxide] | 5.17 |
| COC(=O)NC1CC(C(=O)Nc2ccc(Cl)cc2)CN(C(=O)c2cccc(-c3ccco3)c2)C1 (stereo not shown) [Example E-057, methyl (5-((4-chlorophenyl)carbamoyl)-1-(3-(furan-2-yl)benzoyl)piperidin-3-yl)carbamate] | 4.66 |

Other lines, results leading:

| pIC50 | Compound |
| --- | --- |
| 6.24 | O=C(Nc1ccc(Cl)cc1)C1CN(C(=O)c2cccc(-c3ccco3)c2)CC(F)(F)C1 (stereo not shown) [Example E-019, N-(4-chlorophenyl)-5,5-difluoro-1-(3-(furan-2-yl)benzoyl)piperidine-3-carboxamide] |
| 5.72 | C=C1CC(C(=O)Nc2ccc(Cl)cc2)CN(C(=O)c2cccc(-c3ccco3)c2)C1 (stereo not shown) [Example E-020, N-(4-chlorophenyl)-1-(3-(furan-2-yl)benzoyl)-5-methylenepiperidine-3-carboxamide] |
| 6.09 | O=C(Nc1ccc(Cl)cc1)C1CN(C(=O)c2cc(-c3ccco3)ccn2)CC(F)(F)C1 (stereo not shown) [Example E-025, N-(4-chlorophenyl)-5,5-difluoro-1-{[4-(furan-2-yl)pyridin-2-yl]carbonyl}piperidine-3-carboxamide] |
| 5.51 | Cc1ccc(-c2cccc(C(=O)N3CCCC(C(=O)Nc4ccc(Cl)cc4)C3)c2)o1 (stereo not shown) [Example E-029, N-(4-chlorophenyl)-1-(3-(5-methylfuran-2-yl)benzoyl)piperidine-3-carboxamide] |
| 5.49 | O=C(Nc1ccc(Cl)cc1)C1CCCN(C(=O)c2cccc(-c3cc[nH]n3)c2)C1 (stereo not shown) [Example E-032, 1-(3-(1H-pyrazol-3-yl)benzoyl)-N-(4-chlorophenyl)piperidine-3-carboxamide] |
| 5.57 | COc1ccc2nc(C(=O)N3CCCC(C(=O)Nc4ccc(Cl)cc4)C3)[nH]c2c1 (stereo not shown) [Example E-033, N-(4-chlorophenyl)-1-(6-methoxy-1H-benzo[d]imidazole-2-carbonyl)piperidine-3-carboxamide] |
| 6.08 | O=C(Nc1ccc(Cl)cc1)C1CN(C(=O)c2cc(F)cc(-c3ccncc3)c2)CC(F)(F)C1 (stereo not shown) [Example E-041, N-(4-chlorophenyl)-5,5-difluoro-1-(3-fluoro-5-(pyridin-4-yl)benzoyl)piperidine-3-carboxamide] |
| 6.04 | O=C(Nc1ccc(Cl)cc1)C1CN(C(=O)c2cncc(-c3ccncc3)c2)CC(F)(F)C1 (stereo not shown) [Example E-042, 1-([3,4′-bipyridine]-5-carbonyl)-N-(4-chlorophenyl)-5,5-difluoropiperidine-3-carboxamide] |
| 5.66 | CNC1CC(C(=O)Nc2ccc(Cl)cc2)CN(C(=O)c2cccc(-c3ccco3)c2)C1 (stereo not shown) [Example E-044, N-(4-chlorophenyl)-1-(3-(furan-2-yl)benzoyl)-5-(methylamino)piperidine-3-carboxamide] |
| 6.51 | Cn1cncc1-c1cccc(C(=O)N2CC(C(=O)Nc3ccc(Cl)cc3)CC(F)(F)C2)c1 (stereo not shown) [Example E-047, N-(4-chlorophenyl)-5,5-difluoro-1-(3-(1-methyl-1H-imidazol-5-yl)benzoyl)piperidine-3-carboxamide] |
| 7.33 | O=C(Nc1ccc(Cl)cc1)C1CC(NCc2ccccc2)CN(C(=O)c2cccc(-c3ccco3)c2)C1 (stereo not shown) [Example E-048, 5-(benzylamino)-N-(4-chlorophenyl)-1-(3-(furan-2-yl)benzoyl)piperidine-3-carboxamide] |
| 5.96 | O=C(Nc1ccc(Cl)cc1)C1CN(C(=O)c2cccc(-c3ncccn3)c2)CC(F)(F)C1 (stereo not shown) [Example E-050, N-(4-chlorophenyl)-5,5-difluoro-1-(3-(pyrimidin-2-yl)benzoyl)piperidine-3-carboxamide] |
| 5.80 | O=C(Nc1ccc(Cl)cc1)C1CN(C(=O)c2cccc(-c3ccco3)c2)CCS1 (stereo not shown) [Example E-052, N-(4-chlorophenyl)-4-(3-(furan-2-yl)benzoyl) thiomorpholine-2-carboxamide] |

Same assay, conditions: PC-3 cells transfected with Gα12Q231L, SRE.L and pRL-TK reporters; compound 19 hrs

| Compound | pIC50 |
| --- | --- |
| O=C(NC1CC(C(=O)Nc2ccc(Cl)cc2)CN(C(=O)c2cccc(-c3ccco3)c2)C1)Oc1ccccc1 (stereo not shown) [Example E-056, phenyl (5-((4-chlorophenyl)carbamoyl)-1-(3-(furan-2-yl)benzoyl)piperidin-3-yl)carbamate] | 4.42 |
